# Key:
# [1] = tested on: OVX rats; assay: OVX rat model on osteoporosis: boneweight; assay type: in vivo; parameters: key to Anabolic effect on boneweight, Tibia, vs 1,25D3 / Anabolic effect on boneweight, Tibial Meta., vs 1,25D3 / Anabolic effect on boneweight, L4, vs 1,25D3 / Anabolic effect on boneweight, Femur, vs 1,25D3: <: less effect than the reference dose of 1,25D3 (0.25 ug/kg); <=: less or the same effect as the reference dose of 1,25D3 (0.25 ug/kg); =: same effect as the reference dose of 1,25D3 (0.25 ug/kg); =>: same or better effect as the reference dose of 1,25D3 (0.25 ug/kg); >: better effect than the reference dose of 1,25D3 (0.25 ug/kg); details: for Anabolic effect on boneweight, Femur, vs 1,25D3 / Anabolic effect on boneweight, Femur, vs Ovx contr / Anabolic effect on boneweight, L4, vs 1,25D3 / Anabolic effect on boneweight, L4, vs Ovx contr / Anabolic effect on boneweight, Tibia, vs 1,25D3 / Anabolic effect on boneweight, Tibia, vs Ovx contr / Anabolic effect on boneweight, Tibial Meta., vs 1,25D3 / Anabolic effect on boneweight, Tibial Meta., vs Ovx contr: oral 28 days
# Description: FIG. 1 is a graphic illustration of the effect on the weight of the lumbal vertebrae, L4, in rats according to the OVX rat model described herein, and wherein the animal groups received treatment according to the scheme below. A statistical analysis is shown below the graphic illustration. Differences between groups were investigated by the Kruskal-Wallis test, including a multiple comparison procedure: ns represents non-significant, nt represents not tested, and * represents p<0.05. Differences were considered significant at a p<0.05. Results are presented in the bar diagram as means+SD.
# The animals were divided into 6 groups: • Group 1: Intact control, dosed Propylene glycol 0.1 ml/kg (Vehicle) • Group 2: OVX rats control, dosed Propylene glycol 0.1 ml/kg (Vehicle) • Group 3: OVX rats, dosed 1α,25(OH)2D3, […], dosed Compound 145, […]
# (§1) Pharmacological Methods—OVX Rat Model on Osteoporosis
# (§2) To study bone anabolic properties and the effects of the vitamin D analogues of the present invention in preventing or treating demineralisation of the skeleton in vivo, a 4 weeks OVX rat model was used:
# (§3) An ovariectomized rat model (OVX model), orally dosed for 28 days is useful for screening of vitamin D analogues. In this model ovariectomy produces alterations in the cancellous network identical to those seen in the human skeleton during ageing and the menopause. Besides this the model and the following analyses can be performed under very standardised conditions. 1α,25(OH)2D3 is used as a reference compound.
# (§4) Female Sprague Dawley rats weighing approximately 130 g (40–45 days old) were purchased from MB, Ejby, Denmark. The animals were fed a commercial diet and allowed free access to food and drinking water. The animals were split into groups receiving differential treatment.
# (§5) The animals were anaesthetised and ovariectomized through a dorsal incision.
# (§6) Treatment of OVX animals was started 2 weeks after ovariectomy.
# (§7) The animals were dosed orally for 28 days. The oral dosage was by gavage 0.1 ml/100 g bodyweight. The bodyweight of each animal was recorded every day prior to oral dosing. On day 7, 14, 21 and 28 the animals were housed separately for 24 hours in metabolic cages for collection of urine. Urine was frozen at −20° C. for later calcium measurement.
# Left and right femur, left and right tibia, lumbal vertebrae 3 and 4 (L3 and L4) were removed and cleaned for all soft- and connecting tissue. Left femur, left and right tibia and L4 were dried in an oven at 50–60° C. for at least 24 hours and immediately hereafter weighed. The bones were burned in an oven at 800° C. for 4 hours, dissolved in 1N HCl, and analysed for calcium content in a Hitachi 911 autoanalyser. Right femur and L3 were kept in 0.9% NaCl and frozen at −20° C. for later biomechanical testing performed by Jesper Skovhus Thomsen and Lis Mosekilde at Aarhus University, measuring various biomechanical parameters.
# (§8) Effect of Compound 145 compared to the reference dose of 1,25(OH)2D3 (1,25D3) (0.25 μg/kg) and compared to the OVX control group (shown in %) are shown in Tables 1 to 4.
# [2] = tested on: OVX rats; assay: OVX rat model on osteoporosis: urine calcium; assay type: in vivo; parameters: key to Effect on urine calcium vs 1,25D3: <: less effect than the reference dose of 1,25D3 (0.25 ug/kg); <=: less or the same effect as the reference dose of 1,25D3 (0.25 ug/kg); =: same effect as the reference dose of 1,25D3 (0.25 ug/kg); =>: same or better effect as the reference dose of 1,25D3 (0.25 ug/kg); >: better effect than the reference dose of 1,25D3 (0.25 ug/kg); details: oral 28 days
# Description: as §1, §2, §3, §4, §5, §6, §7, §8
smiles,measurement,setting,value
"C=C1C(=CC=C2CCCC3(C)C2CCC3C(C)CSc2ccc(C(C)(C)O)cc2)CC(O)CC1O [Compound 145, 1(S),3(R)-Dihydroxy-20(R)-(4-((1-hydroxy-1-methyl)ethyl)phenylthiomethyl)-9,10-seco-pregna-5(Z),7(E),10(19)-triene]","Anabolic effect on boneweight, Femur, vs 1,25D3","[1]; 1 μg/kg, MTR/16",<=
same,"Anabolic effect on boneweight, Femur, vs Ovx contr","[1]; 1 μg/kg, MTR/16",6%
same,"Anabolic effect on boneweight, L4, vs 1,25D3","[1]; 1 μg/kg, MTR/16",<=
same,"Anabolic effect on boneweight, L4, vs Ovx contr","[1]; 1 μg/kg, MTR/16",9%
same,"Anabolic effect on boneweight, Tibia, vs 1,25D3","[1]; 1 μg/kg, MTR/16",<=
same,"Anabolic effect on boneweight, Tibia, vs Ovx contr","[1]; 1 μg/kg, MTR/16",6%
same,"Anabolic effect on boneweight, Tibial Meta., vs 1,25D3","[1]; 1 μg/kg, MTR/16",<
same,"Anabolic effect on boneweight, Tibial Meta., vs Ovx contr","[1]; 1 μg/kg, MTR/16",6%
same,"Anabolic effect on boneweight, Femur, vs 1,25D3","[1]; 10 μg/kg, MTR/16",>
same,"Anabolic effect on boneweight, Femur, vs Ovx contr","[1]; 10 μg/kg, MTR/16",10%
same,"Anabolic effect on boneweight, L4, vs 1,25D3","[1]; 10 μg/kg, MTR/16",>
same,"Anabolic effect on boneweight, L4, vs Ovx contr","[1]; 10 μg/kg, MTR/16",13%
same,"Anabolic effect on boneweight, Tibia, vs 1,25D3","[1]; 10 μg/kg, MTR/16",>
same,"Anabolic effect on boneweight, Tibia, vs Ovx contr","[1]; 10 μg/kg, MTR/16",8%
same,"Anabolic effect on boneweight, Tibial Meta., vs 1,25D3","[1]; 10 μg/kg, MTR/16",>
same,"Anabolic effect on boneweight, Tibial Meta., vs Ovx contr","[1]; 10 μg/kg, MTR/16",14%
same,"Anabolic effect on boneweight, Femur, vs 1,25D3","[1]; 10 μg/kg, MTR/23",>=
same,"Anabolic effect on boneweight, Femur, vs Ovx contr","[1]; 10 μg/kg, MTR/23",5%
same,"Anabolic effect on boneweight, L4, vs 1,25D3","[1]; 10 μg/kg, MTR/23",>=
same,"Anabolic effect on boneweight, L4, vs Ovx contr","[1]; 10 μg/kg, MTR/23",4%
same,"Anabolic effect on boneweight, Tibia, vs 1,25D3","[1]; 10 μg/kg, MTR/23",>=
same,"Anabolic effect on boneweight, Tibia, vs Ovx contr","[1]; 10 μg/kg, MTR/23",5%
same,"Anabolic effect on boneweight, Tibial Meta., vs 1,25D3","[1]; 10 μg/kg, MTR/23",<
same,"Anabolic effect on boneweight, Tibial Meta., vs Ovx contr","[1]; 10 μg/kg, MTR/23",8%
same,"Anabolic effect on boneweight, Femur, vs 1,25D3","[1]; 25 μg/kg, MTR/27",>
same,"Anabolic effect on boneweight, Femur, vs Ovx contr","[1]; 25 μg/kg, MTR/27",4%
same,"Anabolic effect on boneweight, L4, vs 1,25D3","[1]; 25 μg/kg, MTR/27",>
same,"Anabolic effect on boneweight, L4, vs Ovx contr","[1]; 25 μg/kg, MTR/27",9%
same,"Anabolic effect on boneweight, Tibia, vs 1,25D3","[1]; 25 μg/kg, MTR/27",>
same,"Anabolic effect on boneweight, Tibia, vs Ovx contr","[1]; 25 μg/kg, MTR/27",3%
same,"Anabolic effect on boneweight, Tibial Meta., vs 1,25D3","[1]; 25 μg/kg, MTR/27",>
same,"Anabolic effect on boneweight, Tibial Meta., vs Ovx contr","[1]; 25 μg/kg, MTR/27",−2%
same,"Anabolic effect on boneweight, Femur, vs 1,25D3","[1]; 50 μg/kg, MTR/23",>>
same,"Anabolic effect on boneweight, Femur, vs Ovx contr","[1]; 50 μg/kg, MTR/23",14%
same,"Anabolic effect on boneweight, L4, vs 1,25D3","[1]; 50 μg/kg, MTR/23",>>
same,"Anabolic effect on boneweight, L4, vs Ovx contr","[1]; 50 μg/kg, MTR/23",15%
same,"Anabolic effect on boneweight, Tibia, vs 1,25D3","[1]; 50 μg/kg, MTR/23",>>
same,"Anabolic effect on boneweight, Tibia, vs Ovx contr","[1]; 50 μg/kg, MTR/23",13%
same,"Anabolic effect on boneweight, Tibial Meta., vs 1,25D3","[1]; 50 μg/kg, MTR/23",=
same,"Anabolic effect on boneweight, Tibial Meta., vs Ovx contr","[1]; 50 μg/kg, MTR/23",22%
same,"Anabolic effect on boneweight, Femur, vs 1,25D3","[1]; 50 μg/kg, MTR/27",>
same,"Anabolic effect on boneweight, Femur, vs Ovx contr","[1]; 50 μg/kg, MTR/27",6%
same,"Anabolic effect on boneweight, L4, vs 1,25D3","[1]; 50 μg/kg, MTR/27",>
same,"Anabolic effect on boneweight, L4, vs Ovx contr","[1]; 50 μg/kg, MTR/27",11%
same,"Anabolic effect on boneweight, Tibia, vs 1,25D3","[1]; 50 μg/kg, MTR/27",>
same,"Anabolic effect on boneweight, Tibia, vs Ovx contr","[1]; 50 μg/kg, MTR/27",4%
same,"Anabolic effect on boneweight, Tibial Meta., vs 1,25D3","[1]; 50 μg/kg, MTR/27",>
same,"Anabolic effect on boneweight, Tibial Meta., vs Ovx contr","[1]; 50 μg/kg, MTR/27",−1%
same,"Anabolic effect on boneweight, Femur, vs 1,25D3","[1]; 75 μg/kg, MTR/27",>
same,"Anabolic effect on boneweight, Femur, vs Ovx contr","[1]; 75 μg/kg, MTR/27",8%
same,"Anabolic effect on boneweight, L4, vs 1,25D3","[1]; 75 μg/kg, MTR/27",>
same,"Anabolic effect on boneweight, L4, vs Ovx contr","[1]; 75 μg/kg, MTR/27",13%
same,"Anabolic effect on boneweight, Tibia, vs 1,25D3","[1]; 75 μg/kg, MTR/27",>
same,"Anabolic effect on boneweight, Tibia, vs Ovx contr","[1]; 75 μg/kg, MTR/27",7%
same,"Anabolic effect on boneweight, Tibial Meta., vs 1,25D3","[1]; 75 μg/kg, MTR/27",>>
same,"Anabolic effect on boneweight, Tibial Meta., vs Ovx contr","[1]; 75 μg/kg, MTR/27",9%
same,"Anabolic effect on boneweight, Femur, vs 1,25D3","[1]; 100 μg/kg, MTR/23",>
same,"Anabolic effect on boneweight, Femur, vs Ovx contr","[1]; 100 μg/kg, MTR/23",9%
same,"Anabolic effect on boneweight, L4, vs 1,25D3","[1]; 100 μg/kg, MTR/23",>
same,"Anabolic effect on boneweight, L4, vs Ovx contr","[1]; 100 μg/kg, MTR/23",12%
same,"Anabolic effect on boneweight, Tibia, vs 1,25D3","[1]; 100 μg/kg, MTR/23",>
same,"Anabolic effect on boneweight, Tibia, vs Ovx contr","[1]; 100 μg/kg, MTR/23",7%
same,"Anabolic effect on boneweight, Tibial Meta., vs 1,25D3","[1]; 100 μg/kg, MTR/23",=
same,"Anabolic effect on boneweight, Tibial Meta., vs Ovx contr","[1]; 100 μg/kg, MTR/23",24%
same,"bone anabolic effects (boneweight, biomechanical strength) compared to 1,25D3","[1]; summary of Tables 1 to 4, FIG. 1 and FIG. 2","comparable to or even better than 1,25D3"
same,"Effect on urine calcium vs 1,25D3","[2]; 1 μg/kg, MTR/16",No
same,Effect on urine calcium vs Ovx contr,"[2]; 1 μg/kg, MTR/16",−23%
same,"Effect on urine calcium vs 1,25D3","[2]; 10 μg/kg, MTR/16",<<<
same,Effect on urine calcium vs Ovx contr,"[2]; 10 μg/kg, MTR/16",104%
same,"Effect on urine calcium vs 1,25D3","[2]; 10 μg/kg, MTR/23",<<<
same,Effect on urine calcium vs Ovx contr,"[2]; 10 μg/kg, MTR/23",45%
same,"Effect on urine calcium vs 1,25D3","[2]; 25 μg/kg, MTR/27",<<
same,Effect on urine calcium vs Ovx contr,"[2]; 25 μg/kg, MTR/27",155%
same,"Effect on urine calcium vs 1,25D3","[2]; 50 μg/kg, MTR/23",<=
same,Effect on urine calcium vs Ovx contr,"[2]; 50 μg/kg, MTR/23",373%
same,"Effect on urine calcium vs 1,25D3","[2]; 50 μg/kg, MTR/27",=
same,Effect on urine calcium vs Ovx contr,"[2]; 50 μg/kg, MTR/27",750%
same,"Effect on urine calcium vs 1,25D3","[2]; 75 μg/kg, MTR/27",>=
same,Effect on urine calcium vs Ovx contr,"[2]; 75 μg/kg, MTR/27",777%
same,"Effect on urine calcium vs 1,25D3","[2]; 100 μg/kg, MTR/23",<=
same,Effect on urine calcium vs Ovx contr,"[2]; 100 μg/kg, MTR/23",463%
